Where two headings read alike, the source gives them in different places.
Tested on: strains TA98
Assay type: cell-based
Conditions: for AMES evaluation: strains TA98
Experimental: Regarding various specimen solutions respectively containing trisazo dyes obtained in Examples 1 to 11 to the present invention and dyes of Comparative Examples 1 to 3, the number of mutant colonies was determined using strains TA98. 2. When the ratio is less than 2, it is "negative" and, when the ratio is more than 2, it is "positive", and the results are shown in Table. 1.

Compound: Nc1ccc2c(O)c(N=Nc3ccccc3)c(S(=O)(=O)O)cc2c1N=Nc1ccc(Oc2ccc(Oc3ccc(N=Nc4ccc(O)cc4O)cc3)cc2)cc1 [Ex. 11]
- Ames test: ratio of number of colonies to control (20 μg/plate, with S-9): 1.25
- Ames test: ratio of number of colonies to control (20 μg/plate, without S-9): 0.96
- Ames test: ratio of number of colonies to control (78 μg/plate, with S-9): 1.64
- Ames test: ratio of number of colonies to control (78 μg/plate, without S-9): 1.00
- Ames test: ratio of number of colonies to control (313 μg/plate, with S-9): 1.34
- Ames test: ratio of number of colonies to control (313 μg/plate, without S-9): 0.81
- Ames test: ratio of number of colonies to control (1250 μg/plate, with S-9): 0.64
- Ames test: ratio of number of colonies to control (1250 μg/plate, without S-9): 1.04
- Ames test: ratio of number of colonies to control (5000 μg/plate, with S-9): 1.07
- Ames test: ratio of number of colonies to control (5000 μg/plate, without S-9): 1.35
- AMES evaluation: Negative (When the ratio is less than 2, it is "negative")

Compound: Nc1c(N=Nc2ccc(Oc3ccc(Oc4ccc(N=Nc5ccc(O)cc5O)cc4)cc3)cc2)cc(S(=O)(=O)O)c2ccc(N=Nc3ccccc3)c(O)c12 [Ex. 10]
- Ames test: ratio of number of colonies to control (20 μg/plate, with S-9): 0.91
- Ames test: ratio of number of colonies to control (20 μg/plate, without S-9): 1.03
- Ames test: ratio of number of colonies to control (78 μg/plate, with S-9): 0.92
- Ames test: ratio of number of colonies to control (78 μg/plate, without S-9): 1.01
- Ames test: ratio of number of colonies to control (313 μg/plate, with S-9): 0.85
- Ames test: ratio of number of colonies to control (313 μg/plate, without S-9): 0.84
- Ames test: ratio of number of colonies to control (1250 μg/plate, with S-9): 1.09
- Ames test: ratio of number of colonies to control (1250 μg/plate, without S-9): 1.02
- Ames test: ratio of number of colonies to control (5000 μg/plate, with S-9): 0.90
- Ames test: ratio of number of colonies to control (5000 μg/plate, without S-9): 0.97
- AMES evaluation: Negative (When the ratio is less than 2, it is "negative")

Compound: Nc1ccc(N=Nc2ccc(Oc3ccc(Oc4ccc(N=Nc5c(S(=O)(=O)O)cc6cc(S(=O)(=O)O)c(N=Nc7ccccc7)c(O)c6c5N)cc4)cc3)cc2)c(O)c1 [Ex. 4]
- Ames test: ratio of number of colonies to control (20 μg/plate, with S-9): 1.04
- Ames test: ratio of number of colonies to control (20 μg/plate, without S-9): 0.88
- Ames test: ratio of number of colonies to control (78 μg/plate, with S-9): 1.23
- Ames test: ratio of number of colonies to control (78 μg/plate, without S-9): 0.79
- Ames test: ratio of number of colonies to control (313 μg/plate, with S-9): 0.99
- Ames test: ratio of number of colonies to control (313 μg/plate, without S-9): 0.96
- Ames test: ratio of number of colonies to control (1250 μg/plate, with S-9): 0.88
- Ames test: ratio of number of colonies to control (1250 μg/plate, without S-9): 1.15
- Ames test: ratio of number of colonies to control (5000 μg/plate, with S-9): 0.90
- Ames test: ratio of number of colonies to control (5000 μg/plate, without S-9): 0.92
- AMES evaluation: Negative (When the ratio is less than 2, it is "negative")

Compound: Nc1c(N=Nc2ccc(Oc3cccc(Oc4ccc(N=Nc5ccc(O)cc5O)cc4)c3)cc2)c(S(=O)(=O)O)cc2cc(S(=O)(=O)O)c(N=Nc3ccccc3)c(O)c12 [Ex. 2]
- Ames test: ratio of number of colonies to control (20 μg/plate, with S-9): 1.34
- Ames test: ratio of number of colonies to control (20 μg/plate, without S-9): 1.07
- Ames test: ratio of number of colonies to control (78 μg/plate, with S-9): 1.19
- Ames test: ratio of number of colonies to control (78 μg/plate, without S-9): 1.20
- Ames test: ratio of number of colonies to control (313 μg/plate, with S-9): 1.39
- Ames test: ratio of number of colonies to control (313 μg/plate, without S-9): 1.02
- Ames test: ratio of number of colonies to control (1250 μg/plate, with S-9): 1.28
- Ames test: ratio of number of colonies to control (1250 μg/plate, without S-9): 1.16
- Ames test: ratio of number of colonies to control (5000 μg/plate, with S-9): 1.27
- Ames test: ratio of number of colonies to control (5000 μg/plate, without S-9): 1.28
- AMES evaluation: Negative (When the ratio is less than 2, it is "negative")

Compound: Nc1ccc(N=Nc2ccc(Oc3ccc(Oc4ccc(N=Nc5c(S(=O)(=O)O)cc6cc(S(=O)(=O)O)c(N=Nc7ccc(S(=O)(=O)O)cc7)c(O)c6c5N)cc4)cc3)cc2)c(O)c1 [Ex. 8]
- Ames test: ratio of number of colonies to control (20 μg/plate, with S-9): 0.94
- Ames test: ratio of number of colonies to control (20 μg/plate, without S-9): 1.05
- Ames test: ratio of number of colonies to control (78 μg/plate, with S-9): 0.92
- Ames test: ratio of number of colonies to control (78 μg/plate, without S-9): 1.08
- Ames test: ratio of number of colonies to control (313 μg/plate, with S-9): 0.92
- Ames test: ratio of number of colonies to control (313 μg/plate, without S-9): 0.93
- Ames test: ratio of number of colonies to control (1250 μg/plate, with S-9): 0.93
- Ames test: ratio of number of colonies to control (1250 μg/plate, without S-9): 1.03
- Ames test: ratio of number of colonies to control (5000 μg/plate, with S-9): 1.03
- Ames test: ratio of number of colonies to control (5000 μg/plate, without S-9): 1.12
- AMES evaluation: Negative (When the ratio is less than 2, it is "negative")

Compound: Nc1c(N=Nc2ccc(Oc3ccc(Oc4ccc(N=Nc5ccc(O)cc5O)cc4)cc3)cc2)c(S(=O)(=O)O)cc2cc(S(=O)(=O)O)c(N=Nc3ccccc3)c(O)c12 [Ex. 5]
- Ames test: ratio of number of colonies to control (20 μg/plate, with S-9): 0.93
- Ames test: ratio of number of colonies to control (20 μg/plate, without S-9): 0.89
- Ames test: ratio of number of colonies to control (78 μg/plate, with S-9): 1.04
- Ames test: ratio of number of colonies to control (78 μg/plate, without S-9): 0.95
- Ames test: ratio of number of colonies to control (313 μg/plate, with S-9): 0.86
- Ames test: ratio of number of colonies to control (313 μg/plate, without S-9): 0.63
- Ames test: ratio of number of colonies to control (1250 μg/plate, with S-9): 1.04
- Ames test: ratio of number of colonies to control (1250 μg/plate, without S-9): 0.79
- Ames test: ratio of number of colonies to control (5000 μg/plate, with S-9): 0.57
- Ames test: ratio of number of colonies to control (5000 μg/plate, without S-9): 0.68
- AMES evaluation: Negative (When the ratio is less than 2, it is "negative")

Compound: CCC(C)c1ccc(N=Nc2c(S(=O)(=O)O)cc3cc(S(=O)(=O)O)c(N=Nc4ccc(Oc5ccc(Oc6ccc(N=Nc7ccc(O)cc7O)cc6)cc5)cc4)c(N)c3c2O)cc1 (centres unmarked) [Ex. 6]
- Ames test: ratio of number of colonies to control (20 μg/plate, with S-9): 1.01
- Ames test: ratio of number of colonies to control (20 μg/plate, without S-9): 1.01
- Ames test: ratio of number of colonies to control (78 μg/plate, with S-9): 1.00
- Ames test: ratio of number of colonies to control (78 μg/plate, without S-9): 1.04
- Ames test: ratio of number of colonies to control (313 μg/plate, with S-9): 0.98
- Ames test: ratio of number of colonies to control (313 μg/plate, without S-9): 1.16
- Ames test: ratio of number of colonies to control (1250 μg/plate, with S-9): 0.84
- Ames test: ratio of number of colonies to control (1250 μg/plate, without S-9): 0.97
- Ames test: ratio of number of colonies to control (5000 μg/plate, with S-9): 0.84
- Ames test: ratio of number of colonies to control (5000 μg/plate, without S-9): 0.91
- AMES evaluation: Negative (When the ratio is less than 2, it is "negative")

From patent publication US5336763A, “Trisazo dye and dye composition containing the same” (Orient Chemical Industries, Ltd., priority 1992, dated 1994)
